Patent publication US3953478A, “Tetrahydrofuranyl bromoacetates biocides” (Stauffer Chemical Company, priority 1975, dated 1976)
Converted amounts (≈) assume the structure as drawn.

How the values were obtained:
Format in all cases: cell-based
Staphylococcus aureus = assay: Staphylococcus Aureus Use Dilution Test; settings: Tryptic Soy Broth, 24 hours at 37°C, minimum concentration in which no growth occurs, read-out: Minimum Inhibitory Concentration
Method: This test measures the bacteriostatic effectiveness of a particular test compound against Staphylococcus aureus. Tryptic Soy Broth is dispensed aseptically into sterile 13 × 100 mm clear glass culture tubes. The first tube receives 3.6 ml of medium and tubes 2 through 10 receive 2.0 ml of medium. The test compound is dissolved in acetone to give 10 ml of a solution of 0.10% of the test compound. Using a sterile syringe, 0.4 ml of the test compound solution is placed in the first tube containing the 3.6 ml of sterile broth and mixed thoroughly. This operation is continued through to the tenth tube. From the tenth tube, 2.0 ml of solution is removed and discarded. Each tube is then inoculated with 0.1 ml of a 24-hour culture of Staphylococcus aureus in Tryptic Soy Broth, and the mixture is mixed thoroughly using a Vortex mixer. A control is also set up to be sure that the inoculum is viable using a tube of sterile broth containing no added toxicant. The tubes are incubated for 24 hours at 37°C. The tubes are then examined to determine growth of the organism in the culture tubes. The minimum concentration in which no growth of the organism occurs is recorded. The following table gives the minimum inhibitory concentration necessary to control the organism: […]

Chlorella pyrenoidosa = assay: In Vitro Agar Screening Test; settings: Auxenochlorella pyrenoidosa, modified Jack Meyers agar, room temperature, artificial light, levels 1, 5, 10, 50 μg/ml, read-out: Minimum Inhibitory Concentration
Method: (§1) This test measures the bactericidal, fungicidal and algaecidal properties of a compound when in contact with growing bacteria, fungi or algae in an artificial medium. The test is conducted by adding 20 ml portions of a suitable warm sterile agar solution into 20 × 100 mm Petri dishes at levels of 1, 5, 10 and 50 μg/ml and mixed with the warm mobile agar solution. The treated agar mixture is then allowed to come to room temperature and solidify. Cells of the chosen organism are streaked on the surface of the solidified agar and are then incubated for such lengths of time that untreated samples containing no toxicant show luxurious growth typical of the particular organism. This time varies from 24 hours to 1 week depending on the particular organism. The fungi are incubated at 30°C and the bacteria are incubated at 37°C. The algae are incubated at room temperature under artificial light. Nutrient agar is used as the medium in this test for the bacteria. Potato dextrose agar is used as the medium for the fungi with the exception of Trichophyton mentagrophytes for which Emmons agar is used. A modified Jack Meyers agar is used for the growth of the algae.
(§2) The extent of growth is noted at the end of the incubation period.

Pencillium ochra-chloron = assay: In Vitro Agar Screening Test; settings: potato dextrose agar, 30°C, levels 1, 5, 10, 50 μg/ml, read-out: Minimum Inhibitory Concentration
Method: as §1, §2

Scenedesmus obliquus = assay: In Vitro Agar Screening Test; settings: Tetradesmus obliquus, modified Jack Meyers agar, room temperature, artificial light, levels 1, 5, 10, 50 μg/ml, read-out: Minimum Inhibitory Concentration
Method: as §1, §2

Aspergillus fumigatus = assay: In Vitro Agar Screening Test; settings: potato dextrose agar, 30°C, levels 1, 5, 10, 50 μg/ml, read-out: Minimum Inhibitory Concentration
Method: as §1, §2

Pencillium expansum = assay: In Vitro Agar Screening Test; settings: potato dextrose agar, 30°C, levels 1, 5, 10, 50 μg/ml, read-out: Minimum Inhibitory Concentration
Method: as §1, §2

[1] = test system: Trichophyton mentagrophytes; assay: In Vitro Agar Screening Test; settings: Emmons agar, 30°C, levels 1, 5, 10, 50 μg/ml, read-out: Minimum Inhibitory Concentration
Method: as §1, §2

Aspergillus niger = assay: In Vitro Agar Screening Test; settings: potato dextrose agar, 30°C, levels 1, 5, 10, 50 μg/ml, read-out: Minimum Inhibitory Concentration
Method: as §1, §2

Pseudomonas fluorescens = assay: In Vitro Agar Screening Test; settings: nutrient agar, 37°C, levels 1, 5, 10, 50 μg/ml, read-out: Minimum Inhibitory Concentration
Method: as §1, §2

Bacillus cereus = assay: In Vitro Agar Screening Test; settings: nutrient agar, 37°C, levels 1, 5, 10, 50 μg/ml, read-out: Minimum Inhibitory Concentration
Method: as §1, §2

Trichoderma sp. = assay: In Vitro Agar Screening Test; settings: potato dextrose agar, 30°C, levels 1, 5, 10, 50 μg/ml, read-out: Minimum Inhibitory Concentration
Method: as §1, §2

Euglena gracilis = assay: In Vitro Agar Screening Test; settings: modified Jack Meyers agar, room temperature, artificial light, levels 1, 5, 10, 50 μg/ml, read-out: Minimum Inhibitory Concentration
Method: as §1, §2

Escherichia coli = assay: In Vitro Agar Screening Test; settings: nutrient agar, 37°C, levels 1, 5, 10, 50 μg/ml, read-out: Minimum Inhibitory Concentration
Method: as §1, §2

Pseudomonas aeruginosa = assay: In Vitro Agar Screening Test; settings: nutrient agar, 37°C, levels 1, 5, 10, 50 μg/ml, read-out: Minimum Inhibitory Concentration
Method: as §1, §2

Aspergillus oryzae = assay: In Vitro Agar Screening Test; settings: potato dextrose agar, 30°C, levels 1, 5, 10, 50 μg/ml, read-out: Minimum Inhibitory Concentration
Method: as §1, §2

Enterobacter aerogenes = assay: In Vitro Agar Screening Test; settings: Klebsiella aerogenes, nutrient agar, 37°C, levels 1, 5, 10, 50 μg/ml, read-out: Minimum Inhibitory Concentration
Method: as §1, §2

Question: Which MIC (Staphylococcus aureus) does the source give for O=C(CBr)OC1CCOC1 (stereo not shown) [Compound No. 1, 3-bromoacetoxy tetrahydrofuran] here?
Answer: 12.5 µg/mL (≈ 59.8 µM)

Question: What about the MIC (Chlorella pyrenoidosa) of the same compound?
Answer: 1 µg/mL (≈ 4.78 µM)

Question: And the MIC (Pencillium ochra-chloron)?
Answer: 50 µg/mL (≈ 239 µM)

Question: What about the MIC (Scenedesmus obliquus) of the same compound?
Answer: 1 µg/mL (≈ 4.78 µM)

Question: And the MIC (Aspergillus fumigatus)?
Answer: 50 µg/mL (≈ 239 µM)

Question: What about the MIC (Pencillium expansum) of the same compound?
Answer: 50 µg/mL (≈ 239 µM)

Question: What about the MIC [1] of the same compound?
Answer: 50 µg/mL (≈ 239 µM)

Question: What about the MIC (Aspergillus niger) of the same compound?
Answer: 5 µg/mL (≈ 23.9 µM)

Question: What about the MIC (Pseudomonas fluorescens) of the same compound?
Answer: > 50 µg/mL

Question: What about the MIC (Bacillus cereus) of the same compound?
Answer: 50 µg/mL (≈ 239 µM)

Question: And the MIC (Trichoderma sp.)?
Answer: 50 µg/mL (≈ 239 µM)

Question: What about the MIC (Euglena gracilis) of the same compound?
Answer: 5 µg/mL (≈ 23.9 µM)

Question: And the MIC (Escherichia coli)?
Answer: > 50 µg/mL

Question: What about the MIC (Pseudomonas aeruginosa) of the same compound?
Answer: > 50 µg/mL

Question: What about the MIC (Aspergillus oryzae) of the same compound?
Answer: 50 µg/mL (≈ 239 µM)

Question: And the MIC (Enterobacter aerogenes)?
Answer: 50 µg/mL (≈ 239 µM)
